Assay [1] concerns the target hRIP1 kinase (recombinant full-length RIPK1 protein with N-terminal GST-tag) (Homo sapiens (Human), UniProt Q13546). As to the kind of experiment: Kinase assay of RIPK1 (ADP-Glo). The note with it: 161 nM RIPK1, 50 uM ATP, 20 uM MBP, 90 min. It counts as biochemical. The method, then: Materials: Recombinant full-length RIPK1 protein with N-terminal GST-tag (Cat#R07-34G) was purchased from SignalChem. The ADP-Glo™ kinase assay kit (Cat#V9102) was from Promega. MBP (cat# M2295) protein and all the other chemicals were from Sigma. The 384-well assay plates (Cat#3674, white, opaque) were purchased from Corning.
Kinase activity assay and data analysis: The RIPK1 kinase assay was performed in white 384-well plate. The assay buffer contained 25 mM HEPES (pH7.2), 20 mM MgCl2, 12.5 mM MnCl2, 5 mM EGTA, 2 mM EDTA, 12.5 mM β-glycerol phosphate and 2 mM DTT. RIPK1 was first incubated with compounds or DMSO control for […], then ATP/MBP substrate mixture was added to initiate the reaction. The final concentration of RIPK1 was 161 nM, while the final concentration of ATP was 50 uM, and MBP 20 uM. After 90 min reaction at room temperature, the ADP-Glo reagent and detection solution were added following the technical manual of ADP-Glo™ kinase assay kit (Promega). The luminescence was measured on PerkinElmer Enspire. The data was analyzed using Graphpad Prism (GraphPad Software; www.graphpad.com). The curves were fitted using a non-linear regression model with a sigmoidal dose response.

Assay [2] concerns HT-29 cells. The assay is described as follows: Necrosis assay: TNF-α/Smac mimetic/z-VAD induced necrosis, cell viability by CellTiter-Glo. It is filed as cell-based. The method, then:
HT-29 cells were cultured in McCoy's 5A culture medium (Invitrogen). On day one, HT-29 cells were plated in 96-well assay plates at density of 2,500-3,500 cells per well. On day two, necrosis were induced by adding 20 ng/ml TNF-α (T), 100 nM Smac mimetic (S), and […] z-VAD (Z). At the same time, […] compound from a chemical library of ˜200,000 compounds was delivered into each well. After 24 hrs treatment, cell viability was determined by measuring ATP level using the CellTiter-Glo Luminescent Cell Viability Assay kit. A CellTiter-Glo Assay (Promega) was performed according to the manufacturer's instructions Luminescence was recorded with a PerkinElmer EnSpire Multimode Plate Reader. Survived cells were normalized to those cells treated with DMSO. Nec-1 was used as a positive control for screening necrosis inhibitors. Data are represented as mean±standard deviation of duplicates.
Dose-dependent inhibition of necrosis by compound #9 and the derivative compounds in HT-29 cells were determined by measuring ATP levels as described above.
Background: Cellular ATP, detected with luciferase, serves as a proxy for viable cell number.

Where [3] appears, read: Homo sapiens, necrosis induced by TNF-α/Smac mimetic/z-VAD, 24 hrs, ATP level, read-out: Cell viability assay, EC50.
Setting [4] is: inhibition of necrosis, ATP levels, range given in nM, read-out: EC50 (necrosis activity).
Setting [5] is: inhibition of necrosis, ATP levels, range given in uM, read-out: EC50 (necrosis activity).
Where [6] appears, read: Homo sapiens, inhibition of necrosis, ATP levels, range given in uM, read-out: EC50 (necrosis activity).

The term IC50 denotes the concentration that gives 50% inhibition. Usually EC50 stands for the concentration giving half of the maximal effect.

Like-named read-outs stand apart in the source and are kept apart here.

Sequence of hRIP1 kinase (recombinant full-length RIPK1 protein with N-terminal GST-tag) (Q13546 whole entry): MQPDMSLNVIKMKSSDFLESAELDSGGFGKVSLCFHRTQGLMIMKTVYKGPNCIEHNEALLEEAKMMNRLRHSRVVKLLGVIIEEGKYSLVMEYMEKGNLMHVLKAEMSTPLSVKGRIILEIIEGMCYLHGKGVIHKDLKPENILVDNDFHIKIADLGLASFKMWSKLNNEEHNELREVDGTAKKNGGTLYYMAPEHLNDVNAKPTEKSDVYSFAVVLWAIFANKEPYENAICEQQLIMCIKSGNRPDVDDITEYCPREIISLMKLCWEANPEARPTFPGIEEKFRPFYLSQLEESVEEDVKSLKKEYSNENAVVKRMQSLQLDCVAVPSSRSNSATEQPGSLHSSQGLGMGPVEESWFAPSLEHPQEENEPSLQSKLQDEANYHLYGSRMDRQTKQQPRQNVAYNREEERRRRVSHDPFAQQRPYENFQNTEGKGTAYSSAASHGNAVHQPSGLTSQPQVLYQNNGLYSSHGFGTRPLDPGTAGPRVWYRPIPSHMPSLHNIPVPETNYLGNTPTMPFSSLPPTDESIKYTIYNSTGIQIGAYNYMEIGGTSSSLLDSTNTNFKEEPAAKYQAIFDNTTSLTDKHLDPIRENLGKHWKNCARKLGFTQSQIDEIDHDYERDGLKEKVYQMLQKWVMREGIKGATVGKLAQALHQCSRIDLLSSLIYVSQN

`CCC(C)(C)C(=O)N1C[C@H](O)C[C@H]1c1ccccc1` [Compound 15, 1-((2S,4R)-4-hydroxy-2-phenylpyrrolidin-1-yl)-2,2-dimethylbutan-1-one]: in assay [1], the IC50 was 460 nM. The EC50 was 396 nM in assay [2] (setting [3]) and 1 to 1000 nM in assay [2] (setting [4]). For the compound `CCC(C)(C)C(=O)N1C(=O)CC1c1cccc(N=[N+]=[N-])c1` (centres unmarked) [Compound 25, 4-(3-azidophenyl)-1-(2,2-dimethylbutanoyl)azetidin-2-one], in assay [1], the IC50 is 152 nM. Also, the EC50 in assay [2] (setting [3]) is 556 nM; in assay [2] (setting [4]), 1 to 1000 nM. The matching figures for `CCC(C)(C)C(=O)N1C(=O)N(C)C[C@H]1c1ccccc1` [Compound 31, (R)-3-(2,2-dimethylbutanoyl)-1-methyl-4-phenylimidazolidin-2-one]: 1060 nM, 609 nM and 1 to 1000 nM. In the case of `CCC(C)(C)C(=O)N1C(=O)C[C@H]1c1ccccc1` [Compound 24, (S)-1-(2,2-dimethylbutanoyl)-4-phenylazetidin-2-one], the IC50 in assay [1] turned out to be 19.8 nM. The results for the EC50 in assay [2] (setting [3]) and in assay [2] (setting [4]) were 7 nM and 1 to 1000 nM, respectively.

In the case of `C=CC(C)(C)C(=O)N1CC=C[C@H]1c1ccccc1` [Compound 73], in assay [2] (setting [5]), the EC50 was in the range of 1000 to 1e+06 nM.

Turning to `CCC(C)(C)C(=O)N1CC[C@H](O)[C@H]1c1ccccc1` [Compound S1, 1-((2R,3S)-3-hydroxy-2-phenylpyrrolidin-1-yl)-2,2-dimethylbutan-1-one], in assay [2] (setting [6]), the EC50 was 1000 to 10000 nM. As for `CC(F)(F)C(C)(C)C(=O)N1CC[C@H]1c1ccccc1` [Compound S9], the half-maximal effective concentration (EC50) in assay [2] (setting [4]) fell in the range of 1 to 1000 nM. On to `CCC(C)(C)C(=O)N1NC(=O)CC1c1ccccc1` (centres unmarked) [Compound 34, 1-(2,2-dimethylbutanoyl)-5-phenylpyrazolidin-3-one], for which the concentration giving a half-maximal response (EC50) in assay [2] (setting [6]) was 1000 to 100000 nM. Still for that read-out and setting: the same measure for `C#CCN1C(=O)OC[C@H]1c1ccccc1` [Compound 52, (R)-4-phenyl-3-(prop-2-yn-1-yl)oxazolidin-2-one]: 1000 to 100000 nM; for `O=C1C[C@@H](c2ccccc2)N1C(=O)C1C2CC3CC(C2)CC1C3` (stereo partly drawn) [Compound 47, (S)-1-(adamantane-2-carbonyl)-4-phenylazetidin-2-one]: 1000 to 10000 nM. The same measure, in the same setting: the same measure for `CC(C)(C)[S+]([O-])N1C(=O)C[C@H]1c1ccccc1` (stereo partly drawn) [Compound 41, (4S)-1-(tert-butylsulfinyl)-4-phenylazetidin-2-one]: 1000 to 100000 nM. For the compound `CCC(C)(C)S(=O)(=O)N1CC[C@H]1c1ccccc1` [Compound 70], the 50% effective concentration (EC50) in assay [2] (setting [5]) is 1000 to 1e+06 nM.

`C=CC(C)(C)C(=O)N1CC[C@H]1c1ccccc1` [Compound 68]: the EC50 in assay [2] (setting [5]) lay in the range of 1000 to 1e+06 nM. In the case of `CCC(C)(C)C(=O)N1CCC1c1ccc(C)s1` (centres unmarked) [Compound 60], in assay [2] (setting [5]), the EC50 lay within 1000 to 1e+06 nM. Consider `C#CC(C)(C)C(=O)N1CC[C@H]1c1ccccc1` [Compound 46, (S)-2,2-dimethyl-1-(2-phenylazetidin-1-yl)but-3-yn-1-one], for which the EC50 in assay [2] (setting [4]) was in the range of 1 to 1000 nM. Turning to `CCC(C)(C)C(=O)N1CC(F)(F)C1c1ccccc1` (centres unmarked) [Compound 14, 1-(3,3-difluoro-2-phenylazetidin-1-yl)-2,2-dimethylbutan-1-one], in assay [2] (setting [4]), the EC50 lay in the range of 1 to 1000 nM. As for `C#CCN1C(=O)C[C@H]1c1ccccc1` [Compound 49, (S)-4-phenyl-1-(prop-2-ynyl)azetidin-2-one], the EC50 in assay [2] (setting [6]) was in the range of 1000 to 100000 nM. For `CCC(C)(C)C(=O)N1CCOC1c1ccccc1` (centres unmarked) [Compound 6, 2,2-dimethyl-1-(2-phenyloxazolidin-3-yl)butan-1-one], the half-maximal effective concentration (EC50) in assay [2] (setting [6]) lay in the range of 1000 to 100000 nM. As for `CCC(C)(C)C(=O)N1C(=O)CCC1c1ccccc1` (centres unmarked) [Compound 29, 1-(2,2-dimethylbutanoyl)-5-phenylpyrrolidin-2-one], the EC50 in assay [2] (setting [6]) is 1000 to 100000 nM. For `C#Cc1cccc(C2CC(=O)N2C(=O)C(C)(C)CC)c1` (centres unmarked) [Compound 27, 1-(2,2-dimethylbutanoyl)-4-(3-ethynylphenyl)azetidin-2-one], the EC50 in assay [2] (setting [4]) was in the range of 1 to 1000 nM. Regarding `CCC(C)(C)C(=O)N1COC[C@@H]1c1ccccc1` [Compound 7, (S)-2,2-dimethyl-1-(4-phenyloxazolidin-3-yl)butan-1-one], the EC50 in assay [2] (setting [6]) fell in the range of 1000 to 100000 nM. Turning to `CCC(C)(C)C(=O)N1CCC1c1ncc(C)s1` (centres unmarked) [Compound 65], the EC50 in assay [2] (setting [5]) was 1000 to 1e+06 nM. As for `CC(F)(F)C(C)(C)C(=O)N1CCC=C[C@H]1c1ccccc1` [Compound S17], the EC50 in assay [2] (setting [6]) was in the range of 1000 to 100000 nM. In the case of `CCC(C)(C)C(=O)N1CCC1c1ccco1` (centres unmarked) [Compound 61], in assay [2] (setting [5]), the EC50 is 1000 to 1e+06 nM. In the case of `CCC(C)(C)C(=O)N1C(=O)CC1c1cccc([N+](=O)[O-])c1` (centres unmarked) [Compound 28, 1-(2,2-dimethylbutanoyl)-4-(3-nitrophenyl)azetidin-2-one], the EC50 in assay [2] (setting [6]) was 1000 to 10000 nM.

On to `CC(C)(C)S(=O)(=O)N1CC[C@H]1c1ccccc1` [Compound S8, (S)-1-(tert-butylsulfonyl)-2-phenylazetidine], for which the EC50 in assay [2] (setting [6]) lay in the range of 1000 to 100000 nM.

As for `CCC(C)(C)C(=O)N1CCC=C[C@H]1C1CCCCC1` [Compound 53], the EC50 in assay [2] (setting [5]) is 1000 to 1e+06 nM. As to `CC(C)(C)[S+]([O-])N1CC[C@H]1c1ccccc1` (stereo partly drawn) [Compound S7, (2S)-1-(tert-butylsulfinyl)-2-phenylazetidine], the EC50 in assay [2] (setting [6]) lay within 1000 to 10000 nM. The same measure, in the same setting: the same measure for `C#CCN1C[C@@H](c2ccccc2)N(C(=O)C(C)(C)CC)C1=O` [Compound 30, (R)-3-(2,2-dimethylbutanoyl)-4-phenyl-1-(prop-2-yn-1-yl)imidazolidin-2-one]: 1000 to 10000 nM. As to `CCC(C)(C)C(=O)N1C=CC=CC1C1CCCCC1` (centres unmarked) [Compound 56], the EC50 in assay [2] (setting [5]) fell in the range of 1000 to 1e+06 nM. Take `CCC(C)(C)C(=O)N1CC(O)C1c1ccccc1` (centres unmarked) [Compound 16, 1-(3-hydroxy-2-phenylazetidin-1-yl)-2,2-dimethylbutan-1-one]: the EC50 in assay [2] (setting [6]) lay within 1000 to 10000 nM. On to `CCC(C)(C)C(=O)N1CCC(=O)[C@H]1c1ccccc1` [Compound S3, (R)-1-(2,2-dimethylbutanoyl)-2-phenylpyrrolidin-3-one], for which the 50% effective concentration (EC50) in assay [2] (setting [6]) was 1000 to 10000 nM. For `O=C(N1CCCC1c1cccc(F)c1)C1(C(F)(F)F)CCCC1` (centres unmarked) [Compound 35, (2-(3-fluorophenyl)pyrrolidin-1-yl)(1-(trifluoromethyl)cyclopentyl)methanone], the EC50 in assay [2] (setting [4]) was 1 to 1000 nM.

For `CCC(C)(C)C(=O)n1cccc1-c1ccccc1` [Compound 78, 2,2-dimethyl-1-(2-phenyl-1H-pyrrol-1-yl)butan-1-one], the EC50 in assay [2] (setting [6]) lay in the range of 1000 to 100000 nM. Consider `CCC(C)(C)C(=O)N1C(=O)OC[C@H]1c1ccccc1` [Compound 23, (R)-3-(2,2-dimethylbutanoyl)-4-phenyloxazolidin-2-one], for which, in assay [2] (setting [4]), the EC50 is 1 to 1000 nM. `CCC(C)(C)C(=O)N1C[C@H](O)[C@H]1c1ccccc1` [Compound S5, 1-((2R,3S)-3-hydroxy-2-phenylazetidin-1-yl)-2,2-dimethylbutan-1-one]: the EC50 in assay [2] (setting [6]) fell in the range of 1000 to 100000 nM.

`CCC(C)(C)C(=O)N1C[C@@H](O)[C@H]1c1ccccc1` [Compound S4, 1-((2R,3R)-3-hydroxy-2-phenylazetidin-1-yl)-2,2-dimethylbutan-1-one]: in assay [2] (setting [6]), the EC50 was 1000 to 10000 nM.

On to `CCC(C)(C)C(=O)N1CCC1c1cccs1` (centres unmarked) [Compound 59], for which the EC50 in assay [2] (setting [5]) lay within 1000 to 1e+06 nM.

On to `C=CC(C)(C)C(=O)N1CCC1c1ccc(C)s1` (centres unmarked) [Compound 63], for which the EC50 in assay [2] (setting [5]) was 1000 to 1e+06 nM. For the compound `CCC(C)(C)C(=O)N1CCNCC1c1ccccc1` (centres unmarked) [Compound 17, 2,2-dimethyl-1-(2-phenylpiperazin-1-yl)butan-1-one], the EC50 in assay [2] (setting [6]) was in the range of 1000 to 100000 nM. Same read-out and setting: the same measure for `CC(C)S(=O)(=O)N1C(=O)C[C@H]1c1ccccc1` [Compound 42, (S)-1-(isopropylsulfonyl)-4-phenylazetidin-2-one]: 1000 to 100000 nM. In the case of `CCC(C)(C)C(=O)N1CCCC1C1CCCCC1` (centres unmarked) [Compound 5, 1-(2-cyclohexylpyrrolidin-1-yl)-2,2-dimethylbutan-1-one], the EC50 in assay [2] (setting [4]) lay in the range of 1 to 1000 nM. Regarding `CCC(C)(C)C(=O)N1C(c2ccccc2)CCN1C` (centres unmarked) [Compound 22, 2,2-dimethyl-1-(2-methyl-5-phenylpyrazolidin-1-yl)butan-1-one], the EC50 in assay [2] (setting [4]) is 1 to 1000 nM. On to `CCC(C)(C)C(=O)N1CCOCC1c1ccccc1` (centres unmarked) [Compound 12, 2,2-dimethyl-1-(3-phenylmorpholino)butan-1-one], for which, in assay [2] (setting [6]), the EC50 is 1000 to 100000 nM.

Turning to `C=CC(C)(C)C(=O)N1OCCC1c1ccccc1` (centres unmarked) [Compound 77], the EC50 in assay [2] (setting [5]) is 1000 to 1e+06 nM.
